Measured values: patent US20120207733A1 (priority 2011, published 2012)

System: DU-145 cells
Format: cell-based, Human

## C=C1[C@@H](C)[C@H]2[C@H](Cc3ccccc3)NC(=O)[C@]23[C@H](OC(C)=O)/C=C/[C@@](C)(O)C(=O)[C@@H](C)C/C=C/[C@H]3[C@@H]1O [Cytochalasin-D]
  Effect on cell migration: did not migrate
  Relative Wound Density at 24 Hours, Mean: 3.3 ± 0.2
  Relative Wound Density at 24 Hours, Percent Relative to Media: 4%
